In the NIST ThermoML archive (doi:10.1016/j.fluid.2015.12.021) one finds Normal melting temperature data, which are given here for six molecules.

± gives the expanded uncertainty stated by the source.

For the series the following is noted: Crystal; visual observation.

`O=C(O)CCCCC(=O)O` [1,6-hexanedioic acid]: the Normal melting temperature amounted to 153.20 ± 0.5 °C. On to `O=C(O)c1ccccc1` [benzoic acid], for which the Normal melting temperature is 122.4 ± 0.5 °C.

As for `CCCCCCCCCCCCCCCCCC(=O)O` [octadecanoic acid], the Normal melting temperature amounted to 69.80 ± 0.5 °C. For `Cc1ccc(C(=O)O)cc1` [4-methylbenzoic acid], the Normal melting temperature amounted to 179.60 ± 0.5 °C. Consider `c1ccc2ccccc2c1` [naphthalene], for which the Normal melting temperature was 80.26 ± 0.5 °C.

As to `c1ccc2c(c1)ccc1ccccc12` [phenanthrene], the Normal melting temperature was 99.24 ± 0.5 °C.
